Test results: publication PMC10444817, “New proapoptotic chemotherapeutic agents based on the quinolone-3-carboxamide scaffold acting by VEGFR-2 inhibition” (Scientific Reports, 2023)
Where “and” joins values, the source holds several entries; their conditions need not be identical. Identical values can stand only once.

Key:
HepG2 cells [1] = experiment: MTT cytotoxicity against HepG2 tumor cell line; details: read-out: Cytotoxic activity against HepG2 cell line IC50, 48 h, average of 3 independent runs ± SE
VEGFR-2 = VEGFR-2 (Homo sapiens, UniProt P35968); experiment: VEGFR-2 kinase inhibition assay (Kinase-Glo MAX luminescence kit, BPS Bioscience); details: for IC50: VEGFR-2 inhibitory activity IC50, average of 3 independent runs ± SE; for Fold increase in VEGFR-2 inhibitory activity compared to para methyl substituted derivatives 10b and 10k: 4-isopropyl vs 4-CH3 analogue
Chain of VEGFR-2 (P35968 20-1356): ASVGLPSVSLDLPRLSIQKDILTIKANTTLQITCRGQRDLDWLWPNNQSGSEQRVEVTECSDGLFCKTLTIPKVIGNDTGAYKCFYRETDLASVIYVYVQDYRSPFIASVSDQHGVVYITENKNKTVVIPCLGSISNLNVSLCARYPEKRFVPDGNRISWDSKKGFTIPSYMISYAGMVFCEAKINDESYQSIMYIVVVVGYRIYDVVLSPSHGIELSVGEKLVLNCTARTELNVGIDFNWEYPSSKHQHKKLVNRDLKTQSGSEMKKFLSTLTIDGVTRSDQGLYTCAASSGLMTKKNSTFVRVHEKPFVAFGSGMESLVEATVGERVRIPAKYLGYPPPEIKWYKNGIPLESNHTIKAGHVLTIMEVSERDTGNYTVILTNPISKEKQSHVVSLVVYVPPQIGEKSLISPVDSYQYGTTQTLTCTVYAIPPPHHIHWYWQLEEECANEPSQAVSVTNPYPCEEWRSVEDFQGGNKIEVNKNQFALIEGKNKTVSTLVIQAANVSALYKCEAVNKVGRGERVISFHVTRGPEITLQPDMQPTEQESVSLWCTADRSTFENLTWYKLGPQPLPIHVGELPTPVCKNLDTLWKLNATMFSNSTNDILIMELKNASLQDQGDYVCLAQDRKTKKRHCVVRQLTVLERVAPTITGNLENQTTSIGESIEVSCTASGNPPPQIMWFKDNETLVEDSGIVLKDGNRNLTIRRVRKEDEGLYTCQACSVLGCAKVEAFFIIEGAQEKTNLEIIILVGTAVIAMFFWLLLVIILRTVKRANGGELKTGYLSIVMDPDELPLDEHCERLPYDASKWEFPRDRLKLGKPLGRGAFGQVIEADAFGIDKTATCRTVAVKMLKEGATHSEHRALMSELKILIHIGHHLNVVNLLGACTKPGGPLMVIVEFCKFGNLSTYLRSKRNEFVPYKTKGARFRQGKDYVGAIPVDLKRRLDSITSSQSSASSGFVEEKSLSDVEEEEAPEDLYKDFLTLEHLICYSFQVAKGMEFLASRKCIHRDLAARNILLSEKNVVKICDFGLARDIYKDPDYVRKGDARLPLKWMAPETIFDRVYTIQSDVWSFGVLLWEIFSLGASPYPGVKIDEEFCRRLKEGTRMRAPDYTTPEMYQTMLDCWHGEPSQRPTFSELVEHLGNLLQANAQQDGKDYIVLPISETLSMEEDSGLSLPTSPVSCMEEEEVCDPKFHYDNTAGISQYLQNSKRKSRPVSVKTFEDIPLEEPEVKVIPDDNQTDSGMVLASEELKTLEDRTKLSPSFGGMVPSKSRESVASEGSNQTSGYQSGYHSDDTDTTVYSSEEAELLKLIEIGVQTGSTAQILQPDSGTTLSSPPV

[2] = MTT cytotoxicity against THLE-2 normal liver cell line; assay type: cell-based, human; details: human, THLE-2 normal liver epithelial cells; MTT, 48 h; measured in triplicates; read-out: CC50 cytotoxic activity against THLE-2 normal cell line
Method: (§1) The produced formazan was measured by means of the spectrophotometer ROBONIK P2000 at a wavelength of 570 nm. The Cytotoxic concentration values (CC50) of the assessed compounds were reported as the mean of three independent runs ± SE[69].

[3] = test system: Transformed Human Liver Epithelial-2 normal cell line (THLE-2); experiment: as above; assay type: cell-based; details: CC50 (THLE-2) / IC50 (HepG2)
Method: as §1

HepG2 cells [4] = experiment: Cell cycle analysis by DNA flow cytometry; assay type: cell-based, human; details: HepG2, 48 h at IC50 concentration; frequency of cells, triplicate ± SD
Method: DNA flow cytometry was used to analyze the cell cycle kinetics of HepG2 cancer cells when pre-treated for 48 h with compound 10i at its IC50 concentration. Non-treated HepG2 cells were considered as negative control.
The assay was performed as previously mentioned. In brief, HepG2 cells were pre-incubated with compound 10i at its IC50 concentration for 48 h. Then, about 10^5 cells were attained by trypsinization and washed with phosphate buffer saline (PBS). This was followed by a resuspension step with 60% ice-cold ethanol and incubation till fixation occurs. The fixed cells were washed again and resuspended in a buffer that included 50 μg/mL RNAase A and 10 μg/mL propidium iodide. Finally, cells were incubated at 37 °C in the dark for 20 min and analyzed for the cell cycle kinetics using flow cytometry where FL2 (λex/em 535/617 nm) was used as the signal detector (ACEA Novocyt flowcytometer, ACEA Biosciences Inc., San Diego, CA, USA). A query of 12,000 events was recommended for each sample. ACEA NovoExpress software (ACEA Biosciences Inc., San Diego, CA, USA) was used for analysis.

VEGFR-2 gene = experiment: RT-qPCR of VEGFR-2 gene expression in HepG2 cells; assay type: cell-based, human; details: HepG2, 48 h at IC50 concentration; normalized to β-actin
Method: RT-qPCR was performed to assess the relative normalized gene expression of VEGFR-2 gene in HepG2 cancer cells when pre-treated for 48 h with compound 10i at its IC50 concentration utilizing non-treated HepG2 cells as negative control.
Total RNA was isolated from both 10i-treated and untreated HepG2 cell line pellets using Qiagen RNeasy Mini kit Cat# No. 74104 according to the manufacturer’s guidelines. Then, quantification and quality assessment of the isolated RNA samples were determined by the Nanodrop spectrophotometer at A230, A260 and A280.
cDNA synthesis was performed for RNA using the Promega cDNA Synthesis AMV Reverse Transcriptase Kit (cat# M5108) according to the manufacturer’s instructions. The cDNA synthesis was performed on Bio-Rad 100 Thermal cycler.
Primers for the VEGFR-2 gene were designed and synthesized followed by primer validation and optimization of PCR amplification conditions. RT-qPCR expression analysis for the required genes (ß-actin and VEGFR-2) has been done using the Qiagen Quanti Nova SYBR Green PCR Kit (cat # 208052).

Bax [5] = experiment: Western blotting of Bax protein expression in HepG2 cells; assay type: cell-based, human; details: HepG2, 48 h at IC50 concentration; normalized to β-actin
Method: (§2) Western blotting was performed to assess the relative normalized protein expression of the apoptotic proteins Bax and Caspase-7 in HepG2 cancer cells when pre-treated for 48 h with compound 10i at its IC50 concentration in comparison to non-treated HepG2 cells. […] The current findings provide strong evidence for the positive apoptotic activity of compound 10i in HepG2 cells that accompanies its inhibitory activity on cell proliferation.
(§3) Cells were harvested and washed with phosphate buffer saline (PBS). The cells were then lysed in 10 mM Tris–HCl, 100 mM NaCl, 0.5% Triton X-100, pH 7.6 with EDTA-free Protease Inhibitor Cocktail. This was followed by a centrifugation step at 13,000g for 20 min at 4 °C and direct transfer to sodium dodecyl sulfate–polyacrylamide gel (SDS–PAGE). Western blot analysis was performed using primary antibodies against the target proteins and HRP-conjugated secondary antibodies (Table 12). The chemiluminescence reaction was performed using the ECL western blot HRP substrate (Pierce, Thermo Fisher Scientific). Finally, densitometric quantification of Western blot protein bands were performed with IMAGEJ Software.

Caspase-7 [6] = experiment: Western blotting of Caspase-7 protein expression in HepG2 cells; assay type: cell-based, human; details: HepG2, 48 h at IC50 concentration; normalized to β-actin
Method: as §2, §3

HepG2 cells [7] = details: cited from earlier work
HepG2 cells [8] = details: at its IC50 for 48 h; cited from earlier work
Bax [9] = test system: Bax; set-up: method as in Li et al. 44; details: ref Li et al. 44; cited from earlier work
Caspase-7 [10] = test system: Caspase-7; set-up: method as in Li et al. 44; details: ref Li et al. 44; cited from earlier work

Compound	melting point [°C]	IC50 (VEGFR-2)	IC50 (HepG2 cells [1]) [nM]	also measured
O=C(Nc1ccccc1)Nc1ccc(NC(=O)c2c[nH]c3ccc(Cl)cc3c2=O)cc1 [Compound 10a, 6-Chloro-4-oxo-N-(4-(3-phenylureido)phenyl)-1,4-dihydroquinoline-3-carboxamide]	> 300	138 ± 0.01 nM	4600 ± 280	–
Cc1cccc(NC(=O)Nc2ccc(NC(=O)c3c[nH]c4ccc(Cl)cc4c3=O)cc2)c1 [Compound 10c, 6-Chloro-4-oxo-N-(4-(3-(m-tolyl)ureido)phenyl)-1,4-dihydroquinoline-3-carboxamide]	> 300	169 ± 0.01 nM	4140 ± 250	–
Cc1ccccc1NC(=O)Nc1ccc(NC(=O)c2c[nH]c3ccc(Cl)cc3c2=O)cc1 [Compound 10d, 6-Chloro-4-oxo-N-(4-(3-(o-tolyl)ureido)phenyl)-1,4-dihydroquinoline-3-carboxamide]	> 300	69 ± 0.02 nM	1070 ± 60	–
O=C(Nc1ccc(F)cc1)Nc1ccc(NC(=O)c2c[nH]c3ccc(Cl)cc3c2=O)cc1 [Compound 10e, 6-Chloro-N-(4-(3-(4-fluorophenyl)ureido)phenyl)-4-oxo-1,4-dihydroquinoline-3-carboxamide]	> 300	197 nM and 179 nM	880 ± 50	–
O=C(Nc1ccc(NC(=O)c2c[nH]c3ccc(Cl)cc3c2=O)cc1)Nc1cccc(C(F)(F)F)c1 [Compound 10f, 6-Chloro-4-oxo-N-(4-(3-(3-(trifluoromethyl)phenyl)ureido)phenyl)-1,4-dihydroquinoline-3-carboxamide]	> 300	104.5 ± 0.005 nM	62000 ± 3870	–
CC(C)c1ccc(NC(=O)Nc2ccc(NC(=O)c3c[nH]c4ccc(Cl)cc4c3=O)cc2)cc1 [Compound 10i, 6-Chloro-N-(4-(3-(4-isopropylphenyl)ureido)phenyl)-4-oxo-1,4-dihydroquinoline-3-carboxamide]	–	36 ± 0.01 nM	1600 ± 170	CC50 at 48 h [2]: 21000 nM; Selectivity index (SI) [3]: 13.13; Freq G1 (HepG2 cells [4]): ***2.067 ± 0.189; Freq G2 (HepG2 cells [4]): ***49.80 ± 1.466; Freq S (HepG2 cells [4]): ***7.920 ± 0.2117; Freq Sub-G1 (HepG2 cells [4]): ***20.80 ± 0.7102; Decrease of VEGFR-2 gene expression compared to untreated cells (VEGFR-2 gene): 84%; Induction of Bax protein expression compared to negative control (Bax [5]): up to 20 folds; Induction of Caspase-7 protein expression compared to negative control (Caspase-7 [6]): ≤ 6 folds; Fold increase in VEGFR-2 inhibitory activity compared to para methyl substituted derivatives 10b and 10k (VEGFR-2): more than 16 fold
O=C(Nc1ccccc1)Nc1ccc(NC(=O)c2c[nH]c3ccc(F)cc3c2=O)cc1 [Compound 10j, 6-Fluoro-4-oxo-N-(4-(3-phenylureido)phenyl)-1,4-dihydroquinoline-3-carboxamide]	> 300	340 ± 0.01 nM	41900 ± 2520	–
Cc1ccc(NC(=O)Nc2ccc(NC(=O)c3c[nH]c4ccc(F)cc4c3=O)cc2)cc1 [Compound 10k, 6-Fluoro-4-oxo-N-(4-(3-(p-tolyl)ureido)phenyl)-1,4-dihydroquinoline-3-carboxamide]	> 300	2226 ± 0.09 nM	34200 ± 2060	–
Cc1cccc(NC(=O)Nc2ccc(NC(=O)c3c[nH]c4ccc(F)cc4c3=O)cc2)c1 [Compound 10l, 6-Fluoro-4-oxo-N-(4-(3-(m-tolyl)ureido)phenyl)-1,4-dihydroquinoline-3-carboxamide]	> 300	317 ± 0.01 nM	14200 ± 820	–
CC(C)c1ccc(NC(=O)Nc2ccc(NC(=O)c3c[nH]c4ccc(F)cc4c3=O)cc2)cc1 [Compound 10p, 6-Fluoro-N-(4-(3-(4-isopropylphenyl)ureido)phenyl)-4-oxo-1,4-dihydroquinoline-3-carboxamide]	> 300	97 ± 0.01 nM	8140 ± 470	Fold increase in VEGFR-2 inhibitory activity compared to para methyl substituted derivatives 10b and 10k (VEGFR-2): more than 16 fold
CNC(=O)c1cc(Oc2ccc(NC(=O)Nc3ccc(Cl)c(C(F)(F)F)c3)cc2)ccn1 [Sorafenib]	–	–	8380 ± 500	CC50 at 48 h [2]: 18500 nM; Combined apoptosis, percent cell population (HepG2 cells [7]): 6.37%; Late apoptotic phase, percent cell population (HepG2 cells [7]): 4.2%; Effect on cell cycle kinetics of HepG2 cells (HepG2 cells [8]): sequestration of cells in the PreG1 (or Sub-G1 (G0)), as well as cell growth arrest in G2/M phase; Effect on Bax expression in HepG2 cells (Bax [9]): no significant upregulation; Effect on caspase-7 expression in HepG2 cells (Caspase-7 [10]): significantly upregulate the expression of caspase-7

The next lines start with results.

melting point [°C]	IC50 (VEGFR-2)	Compound	IC50 (HepG2 cells [1]) [nM]	also measured
> 300	578 ± 0.03 nM	Cc1ccc(NC(=O)Nc2ccc(NC(=O)c3c[nH]c4ccc(Cl)cc4c3=O)cc2)cc1 [Compound 10b, 6-Chloro-4-oxo-N-(4-(3-(p-tolyl)ureido)phenyl)-1,4-dihydroquinoline-3-carboxamide]	50800 ± 3160	–
> 300	1603 ± 0.06 nM	N#Cc1ccc(NC(=O)Nc2ccc(NC(=O)c3c[nH]c4ccc(Cl)cc4c3=O)cc2)cc1 [Compound 10g, 6-Chloro-N-(4-(3-(4-cyanophenyl)ureido)phenyl)-4-oxo-1,4-dihydroquinoline-3-carboxamide]	43200 ± 2590	–
> 300	937 ± 0.04 nM	O=C(Nc1ccc(NC(=O)c2c[nH]c3ccc(Cl)cc3c2=O)cc1)Nc1ccc2ncsc2c1 [Compound 10h, N-(4-(3-(Benzo[d]thiazol-6-yl)ureido)phenyl)-6-chloro-4-oxo-1,4-dihydroquinoline-3-carboxamide]	14900 ± 520	Fold decrease in VEGFR-2 inhibitory activity (VEGFR-2; benzothiazole derivative, comparator not named): about 5.5 fold
> 300	181 ± 0.01 nM	Cc1ccccc1NC(=O)Nc1ccc(NC(=O)c2c[nH]c3ccc(F)cc3c2=O)cc1 [Compound 10m, 6-Fluoro-4-oxo-N-(4-(3-(o-tolyl)ureido)phenyl)-1,4-dihydroquinoline-3 carboxamide]	13000 ± 750	–
> 300	257 ± 0.01 nM	O=C(Nc1ccc(F)cc1)Nc1ccc(NC(=O)c2c[nH]c3ccc(F)cc3c2=O)cc1 [Compound 10n, 6-Fluoro-N-(4-(3-(4-fluorophenyl)ureido)phenyl)-4-oxo-1,4-dihydroquinoline-3-carboxamide]	2880 ± 140	–
> 300	38 ± 0.02 nM	O=C(Nc1ccc(NC(=O)c2c[nH]c3ccc(F)cc3c2=O)cc1)Nc1cccc(C(F)(F)F)c1 [Compound 10o, 6-Fluoro-4-oxo-N-(4-(3-(3-(trifluoromethyl)phenyl)ureido)phenyl)-1,4-dihydroquinoline-3-carboxamide]	2760 ± 100	CC50 at 48 h [2]: 15200 nM; Selectivity index (SI) [3]: 5.52
